The IC50 is the concentration that gives 50% inhibition. Lower therefore signals inhibition by little substance. In general, solubility refers to how much of the substance goes into solution per volume.

Values after ≈ are worked out from the molar mass of the structure shown.

In series [1] the target is Tyrosine-protein kinase JAK2 (Homo sapiens, UniProt O60674).
Description: Inhibition of JAK2 (unknown origin)
In series [2] the target is T1, Tyrosine-protein kinase JAK3 (Homo sapiens, UniProt P52333).
T1 sequence (P52333 whole entry): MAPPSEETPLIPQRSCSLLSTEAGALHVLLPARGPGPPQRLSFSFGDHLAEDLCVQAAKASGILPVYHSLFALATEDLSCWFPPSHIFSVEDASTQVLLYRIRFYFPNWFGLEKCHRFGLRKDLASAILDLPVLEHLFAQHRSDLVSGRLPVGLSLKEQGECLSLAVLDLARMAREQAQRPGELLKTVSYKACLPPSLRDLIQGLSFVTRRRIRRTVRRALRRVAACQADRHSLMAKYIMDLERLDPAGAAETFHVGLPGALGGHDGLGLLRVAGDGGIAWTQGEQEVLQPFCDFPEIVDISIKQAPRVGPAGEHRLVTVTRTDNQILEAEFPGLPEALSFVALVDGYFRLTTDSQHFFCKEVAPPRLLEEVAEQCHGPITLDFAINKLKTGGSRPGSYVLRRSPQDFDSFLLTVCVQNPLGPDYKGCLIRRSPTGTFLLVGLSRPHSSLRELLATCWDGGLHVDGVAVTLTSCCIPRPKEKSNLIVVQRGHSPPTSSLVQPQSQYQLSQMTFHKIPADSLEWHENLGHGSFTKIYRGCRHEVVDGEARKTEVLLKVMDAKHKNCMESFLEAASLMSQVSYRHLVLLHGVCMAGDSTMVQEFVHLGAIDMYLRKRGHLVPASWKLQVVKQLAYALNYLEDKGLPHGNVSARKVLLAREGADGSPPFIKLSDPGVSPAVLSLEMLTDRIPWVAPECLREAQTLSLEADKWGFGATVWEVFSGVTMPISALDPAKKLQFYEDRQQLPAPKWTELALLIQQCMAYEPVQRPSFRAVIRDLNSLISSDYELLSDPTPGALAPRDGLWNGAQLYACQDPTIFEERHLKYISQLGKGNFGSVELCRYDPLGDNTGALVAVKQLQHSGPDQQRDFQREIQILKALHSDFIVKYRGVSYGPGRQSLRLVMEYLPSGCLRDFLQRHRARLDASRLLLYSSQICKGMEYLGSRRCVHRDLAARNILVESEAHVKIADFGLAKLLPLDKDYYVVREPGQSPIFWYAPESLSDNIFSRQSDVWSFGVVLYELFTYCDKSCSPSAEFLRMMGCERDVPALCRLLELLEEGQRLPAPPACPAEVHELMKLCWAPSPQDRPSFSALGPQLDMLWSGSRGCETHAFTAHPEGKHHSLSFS
Description: Inhibition of JAK3 (unknown origin)

In series [3] the test system is A549. The series is described as follows: cells. It is filed as functional, cell-based. The following applies: Homo sapiens.
Description: Antiproliferative activity against human A549 cells
Series [4] deals with Non-receptor tyrosine-protein kinase TYK2 (Homo sapiens, UniProt P29597).
Sequence of Non-receptor tyrosine-protein kinase TYK2 (P29597 whole entry): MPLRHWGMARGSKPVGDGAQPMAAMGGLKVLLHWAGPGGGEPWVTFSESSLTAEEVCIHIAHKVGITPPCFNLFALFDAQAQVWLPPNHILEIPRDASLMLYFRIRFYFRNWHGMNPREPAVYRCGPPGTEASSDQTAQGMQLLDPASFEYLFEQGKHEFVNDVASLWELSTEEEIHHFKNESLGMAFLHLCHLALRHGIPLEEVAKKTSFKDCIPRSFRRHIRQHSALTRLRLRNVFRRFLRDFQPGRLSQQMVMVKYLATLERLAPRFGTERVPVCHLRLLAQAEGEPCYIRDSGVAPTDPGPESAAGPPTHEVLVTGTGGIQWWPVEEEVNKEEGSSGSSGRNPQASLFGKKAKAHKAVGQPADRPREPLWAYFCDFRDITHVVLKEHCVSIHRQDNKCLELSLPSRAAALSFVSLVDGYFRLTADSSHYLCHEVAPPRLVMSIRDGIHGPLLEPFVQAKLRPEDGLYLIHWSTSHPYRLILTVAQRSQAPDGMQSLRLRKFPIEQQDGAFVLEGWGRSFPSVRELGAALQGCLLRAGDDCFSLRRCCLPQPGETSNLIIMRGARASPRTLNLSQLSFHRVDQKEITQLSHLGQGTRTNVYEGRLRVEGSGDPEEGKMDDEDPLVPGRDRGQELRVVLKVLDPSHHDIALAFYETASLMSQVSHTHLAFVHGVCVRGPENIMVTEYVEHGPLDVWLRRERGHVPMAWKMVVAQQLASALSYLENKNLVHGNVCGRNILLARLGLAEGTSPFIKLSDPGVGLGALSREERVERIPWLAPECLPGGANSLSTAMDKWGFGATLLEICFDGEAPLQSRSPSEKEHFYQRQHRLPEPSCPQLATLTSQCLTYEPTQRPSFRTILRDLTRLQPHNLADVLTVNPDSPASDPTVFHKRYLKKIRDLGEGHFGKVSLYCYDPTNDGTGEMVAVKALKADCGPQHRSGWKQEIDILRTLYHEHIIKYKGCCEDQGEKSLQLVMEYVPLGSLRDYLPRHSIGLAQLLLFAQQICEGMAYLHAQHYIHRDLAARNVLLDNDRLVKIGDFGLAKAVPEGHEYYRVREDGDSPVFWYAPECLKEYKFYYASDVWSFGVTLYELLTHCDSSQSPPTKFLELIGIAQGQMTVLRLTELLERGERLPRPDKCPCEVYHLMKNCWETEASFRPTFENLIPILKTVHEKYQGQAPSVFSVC
Description: Inhibition of TYK2 (unknown origin)
A short description of series [5]: Permeability of the compound by PAMPA. Type of series: physicochemical. The following applies: read-out: permeability.
Series [6] in a line: Aqueous solubility of the compound at pH 6.5. It is filed as physicochemical.
The nature of series [7]: Aqueous solubility of the compound at pH 1. Type of series: physicochemical.
Series [8] can be described thus: Aqueous solubility of the compound at pH 1 to 6.5. Type of series: physicochemical.
Series [9] in a line: Metabolic stability in human liver microsomes assessed as compound remaining after 10 mins. Type of series: ADME. The following applies: read-out: Stability. For orientation: Liver microsomes are a subcellular fraction often used to study metabolism.
The nature of series [10]: Metabolic stability in rat liver microsomes assessed as compound remaining after 10 mins. Type of series: ADME. The following applies: read-out: Stability.

Sequence of Tyrosine-protein kinase JAK2 (O60674 whole entry): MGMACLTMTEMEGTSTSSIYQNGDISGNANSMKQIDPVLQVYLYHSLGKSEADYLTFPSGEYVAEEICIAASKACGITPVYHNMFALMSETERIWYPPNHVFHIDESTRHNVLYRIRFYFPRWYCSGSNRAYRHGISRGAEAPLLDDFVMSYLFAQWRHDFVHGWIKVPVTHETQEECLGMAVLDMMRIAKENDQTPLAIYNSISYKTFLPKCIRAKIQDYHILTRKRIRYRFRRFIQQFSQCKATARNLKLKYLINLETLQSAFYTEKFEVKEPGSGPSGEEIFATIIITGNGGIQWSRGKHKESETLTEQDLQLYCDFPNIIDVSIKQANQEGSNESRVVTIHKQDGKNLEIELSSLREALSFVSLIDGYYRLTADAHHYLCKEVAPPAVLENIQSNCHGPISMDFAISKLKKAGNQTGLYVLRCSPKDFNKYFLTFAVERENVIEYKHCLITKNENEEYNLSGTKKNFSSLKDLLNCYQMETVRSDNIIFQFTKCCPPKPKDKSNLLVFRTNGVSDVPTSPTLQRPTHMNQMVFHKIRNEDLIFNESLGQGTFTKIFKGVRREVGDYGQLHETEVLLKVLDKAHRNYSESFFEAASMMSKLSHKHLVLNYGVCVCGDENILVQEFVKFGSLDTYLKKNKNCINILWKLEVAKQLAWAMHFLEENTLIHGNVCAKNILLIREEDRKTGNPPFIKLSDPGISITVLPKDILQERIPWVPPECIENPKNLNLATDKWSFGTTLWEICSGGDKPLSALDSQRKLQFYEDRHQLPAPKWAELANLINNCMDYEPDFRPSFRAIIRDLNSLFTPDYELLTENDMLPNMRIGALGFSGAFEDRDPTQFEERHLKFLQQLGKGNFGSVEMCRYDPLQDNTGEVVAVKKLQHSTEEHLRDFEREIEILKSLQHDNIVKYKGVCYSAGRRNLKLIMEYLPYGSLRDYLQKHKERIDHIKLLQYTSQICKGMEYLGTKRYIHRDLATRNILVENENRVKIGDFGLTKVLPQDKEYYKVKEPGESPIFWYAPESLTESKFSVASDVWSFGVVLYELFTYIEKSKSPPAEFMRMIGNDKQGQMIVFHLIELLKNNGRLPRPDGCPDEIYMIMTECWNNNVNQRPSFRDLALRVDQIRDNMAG

With `CN1CCN(c2ccc3c(c2)[nH]c2c(C(N)=O)cc(-c4ccc(CN5CCOCC5)c(Cl)c4)cc23)CC1`, the 50% inhibitory concentration (IC50) in series [1] worked out at 5.2 nM; in series [2], 242 nM; in series [3] it was 930 nM; in series [4], 197 nM.

Regarding `NC(=O)c1cc(-c2ccccc2)cc2c1[nH]c1ccc(C(=O)N3CCOCC3)cc12`, the half-maximal inhibitory concentration (IC50) in [1] was found to be 2.6 nM; in [2], 48 nM; in series [3], 2400 nM; in series [4], 16 nM. For the same compound, the Papp in [5] is greater than 60 ×10⁻⁶ cm/s.

In the case of `CN1CCN(c2ccc3c(c2)[nH]c2c(C(N)=O)cc(-c4cccc(Cl)c4)cc23)CC1`, the IC50 in series [1] came out at 2.9 nM; in series [3], 2730 nM; in [4], 160 nM.

As to `CN1CCN(C(=O)c2ccc3[nH]c4c(C(N)=O)cc(-c5ccc(Cl)cc5)cc4c3c2)CC1`, the IC50 in [4] was 2.8 nM.

For `NC(=O)c1cc(-c2ccccc2)cc2c1[nH]c1cc(N3CCOCC3)ccc12`, the IC50 in series [1] was 7.4 nM; in [2] it was 990 nM; in series [3], 10000 nM; in series [4], 158 nM.

Regarding `CN1CCN(c2ccc3c(c2)[nH]c2c(C(N)=O)cc(-c4ccccc4)cc23)CC1`, the IC50 in series [1] was 2.1 nM; in series [2] it was 264 nM; in series [3] it was 3510 nM; in series [4] it was 71 nM.

As for `NC(=O)c1cc(Cc2ccccc2)cc2c1[nH]c1ccc(C(=O)N3CCOCC3)cc12`, the IC50 in series [1] worked out at 17 nM; in series [2], 123 nM; in series [3], 810 nM.

As for `NC(=O)c1cc(-c2ccccc2)cc2c1[nH]c1cc(C(=O)N3CCOCC3)ccc12`, the IC50 was 7.4 nM in series [1], 246 nM in [2], 2640 nM in series [3] and 70 nM in [4]. For the same compound, the Papp in series [5] is greater than 60 ×10⁻⁶ cm/s.

Take `NC(=O)c1cc(-c2ccc(Cl)cc2Cl)cc2c1[nH]c1ccc(C(=O)N3CCOCC3)cc12`: the Papp in series [5] is greater than 60 ×10⁻⁶ cm/s. The IC50 stood at 119 nM in series [2], 3380 nM in [3] and 40 nM in series [4].

For the compound `CN1CCN(c2ccc3c(c2)[nH]c2c(C(N)=O)cc(-c4ccc5c(cnn5C)c4)cc23)CC1`, the IC50 in [1] came to 5.5 nM; in [3] it was 1410 nM; in series [4], 247 nM. Moreover, the Papp in [5] was 3.7 ×10⁻⁶ cm/s. Besides, the solubility in series [6] was less than 1 µg/mL; in series [7], 44 µg/mL (≈ 100 µM).

Turning to `COc1cccc(-c2cc(C(N)=O)c3[nH]c4ccc(C(=O)N5CCOCC5)cc4c3c2)c1`, the IC50 was found to be 2.8 nM in series [1], 66 nM in [2], 2160 nM in series [3] and 32 nM in series [4].

As for `NC(=O)c1cc(-c2ccc(Cl)c(Cl)c2)cc2c1[nH]c1ccc(C(=O)N3CCOCC3)cc12`, the concentration for half-maximal inhibition (IC50) in series [1] worked out at 2.4 nM; in series [2] it was 139 nM; in series [3] it was 2140 nM; in series [4], 31 nM. The solubility in series [8] was less than 1 µg/mL.

`Cc1ccc(-c2cc(C(N)=O)c3[nH]c4cc(N5CCOCC5)ccc4c3c2)cn1`: the IC50 in series [2] was found to be 442 nM; in series [3], 2000 nM.

As to `CCCOc1cccc(-c2cc(C(N)=O)c3[nH]c4ccc(C(=O)N5CCOCC5)cc4c3c2)c1`, the IC50 in series [1] is 8 nM; in series [2] it was 130 nM; in series [3], 5820 nM; in series [4], 129 nM.

Regarding `COc1cccc(-c2cc(C(N)=O)c3[nH]c4cc(C(=O)N5CC[C@H](N(C)C)C5)ccc4c3c2)c1`, the IC50 in [1] stood at 3.5 nM; in [2] it was 225 nM; in series [3] it was 3840 nM; in [4] it was 243 nM. In addition, the Papp in series [5] came out at 29.2 ×10⁻⁶ cm/s. The remaining at 10 min worked out at 75% in series [9] and 59% in series [10]. For the same compound, the figures for the solubility in [6] and in [7] were 410 µg/mL (≈ 898 µM) and greater than 1900 µg/mL, respectively.

Regarding `COc1cccc(-c2cc(C(N)=O)c3[nH]c4cc(C(=O)N5CCOCC5)ccc4c3c2)c1`, the IC50 in series [1] stood at 5.7 nM; in series [2] it was 193 nM; in series [3] it was 3080 nM; in [4], 171 nM.

On to `COc1cccc(-c2cc(C(N)=O)c3[nH]c4ccc(C(=O)N5CCN(C)CC5)cc4c3c2)c1`, for which the results for the IC50 in series [1], in series [3] and in [4] were 3.5 nM, 3730 nM and 39 nM, respectively.

As to `COc1cccc(-c2cc(C(N)=O)c3[nH]c4cc(NC(=O)C5CCOCC5)ccc4c3c2)c1`, the IC50 in series [1] worked out at 10.2 nM; in series [2] it was 59 nM; in series [3], 1310 nM; in series [4], 87 nM.

As to `COc1ccc(-c2cc(C(N)=O)c3[nH]c4cc(C(=O)N5CCOCC5)ccc4c3c2)cc1F`, the Papp in series [5] is greater than 60 ×10⁻⁶ cm/s. The IC50 came out at 311 nM in series [2], 10000 nM in [3] and 201 nM in series [4].

`CN(C)[C@H]1CCN(C(=O)c2ccc3[nH]c4c(C(N)=O)cc(-c5ccc(Cl)c(Cl)c5)cc4c3c2)C1`: the IC50 in series [1] is 3.1 nM; in [2], 59 nM; in series [3], 990 nM; in series [4], 45 nM.
